Earlier results, collected in patent US4181708A, “Rumen-stable pellets” (Eastman Kodak Company, priority 1978, dated 1980).
Where two headings read alike, the source gives them in different places.

Conditions: for Solubility: water

SMILES | pH of saturated solution | Solubility [g./100 g. water] | Solubility (at 25° C.) [g./100 g. water]
NC(Cc1ccccc1)C(=O)O (racemic) [DL - Phenylalanine] | 5.6 |  | 3.0
CC(C)C[C@H](N)C(=O)O [L(-) - Lencine] |  |  | 2.0
N=C(N)NCCC[C@H](N)C(=O)O [L - Arginine] | 11.8 |  | 
N[C@@H](Cc1ccc(O)cc1)C(=O)O [L(-) - Tyrosine] | 7.3 |  | 

Continued, in another order:

pH of saturated solution | Solubility [g./100 g. water] | SMILES | Solubility (at 25° C.) [g./100 g. water]
5.7 |  | CSCCC(N)C(=O)O (racemic) [DL - Methionine] | 
3.7 | 0.01 | N[C@@H](CS)C(=O)O [L(-) - Cysteine] | 
4.7 | 3.1 | NC(=O)C[C@H](N)C(=O)O [L - Asparagine] | 
6.2 |  | CC(N)C(=O)O (racemic) [DL - Alanine] | 
